From US20230227769A1, “Means and Methods to Improve Yeast Fermentation Efficiency” (VIB VZW, priority 2020, published 2023)

Tested on: 2G industrial yeast strains MD4 and T18
Assay: Fermentations in lignocellulose hydrolysates spiked with a range of inhibitor concentrations
Format: cell-based, S. cerevisiae
Conditions: five lignocellulose hydrolysates spiked with a range of inhibitor concentrations; both strains MD4 and T18
Experimental: The medium was spiked with different industrially relevant concentrations of (FIG. 1A, FIG. 1E) HMF, (FIG. 1B, FIG. 1F) furfural, (FIG. 1C, FIG. 1G) formic acid and (FIG. 1D, FIG. 1H) acetic acid.
As a first step in developing a yeast strain that can cope with the presence of fermentation inhibitors, the level of all relevant inhibitory compounds was measured in five different lignocellulose hydrolysates: two bagasse hydrolysates, two corn cob hydrolysates and one spruce hydrolysate (for composition see Table 2). Fermentations with two 2G industrial yeast strains, MD4 and T18, were performed using these hydrolysates spiked with a range of inhibitor concentrations.
After preculture of the yeast strains for 48 h at 30° C. with shaking at 200 rpm in YPD2% (10 g/l yeast extract, 20 g/l bacteriological peptone, 2% D-glucose) up to stationary phase, small-scale (10 ml) semi-anaerobic fermentations with MD4 and T18 were performed at pH 5.2, 35° C., shaking at 350 rpm, and a yeast inoculum OD 5.0. Weight loss of the fermentation tubes, which is correlated with CO2 production during conversion of glucose and xylose into ethanol, was measured continuously, or sampling at different timepoints was performed to analyse sugar and inhibitor concentrations by HPLC.

O=C(O)c1ccc(O)cc1 [4-hydroxybenzoic acid]
inhibitory effect on fermentation: smaller inhibitory effect

CC(=O)O [acetic acid]
inhibitory effect on fermentation: major inhibitors

O=CO [formic acid]
inhibitory effect on fermentation: major inhibitors

O=Cc1ccc(O)cc1 [4-hydroxybenzaldehyde]
inhibitory effect on fermentation: smaller inhibitory effect

CC(=O)CCC(=O)O [Levulinic acid]
inhibitory effect on fermentation: smaller inhibitory effect

COc1cc(C=O)ccc1O [vanillin]
inhibitory effect on fermentation: smaller inhibitory effect

O=Cc1ccco1 [furfural]
inhibitory effect on fermentation: major inhibitors

O=Cc1ccc(CO)o1 [HMF, 5-(hydroxymethyl)furfural]
inhibitory effect on fermentation: major inhibitors
